# Experimental data published in US20260085091A1, “PEPTIDES THAT SELECTIVELY BIND TO Trop2 AND USE THEREOF” (KYUNGPOOK NATIONAL UNIVERSITY INDUSTRY-ACADEMIC COOPERATION …, priority 2022, published 2026).
# Primed or numbered codes have the meaning given here. Ends that are not written are not given here. FITC′ = not defined here
# Key:
# KKU-213 cells [1] = test: Transwell invasion assay (Matrigel); assay type: cell-based, human; conditions: dose-dependent
# Description: (§1) Serum-starved KKU-213 cells were resuspended with serum-free medium containing peptide and added to the 8.0 μm pore polycarbonate insert of a Transwell chamber (Corning Life Sciences, Tewksbury, MA, USA). For the invasion assay, the membrane was coated with 0.3 μg Matrigel matrix (Corning Life Sciences) at 37° C. for 2 h before use. Serum-containing or serum-free medium was added to the reservoir and reacted at 37° C. overnight. The migrated or invaded cells were fixed and stained with 0.1% crystal violet solution at RT for 10 min. The stained cells were counted under a light microscope.
# (§2) Trop2 is involved in EMT and metastasis, and to examine whether CSTLNVESC (SEQ ID NO: 1) peptide affects cell migration and invasion, trans-well chamber assays were performed.
# KKU-213 cells [2] = test: Transwell migration assay; assay type: cell-based, human; conditions: dose-dependent
# Description: as §1, §2
# [3] = tested on: KKU-213 subcutaneous tumor; test: Tumor homing assay (IVIS imaging)
# Description: Four-week-old BALB/c female nude mice were purchased from Orient Bio (Seongnam, Republic of Korea). The mice were cared for and maintained in conformance with the Guidelines of the Institutional Animal Care and Use Committee (IACUC) of Kyungpook National University (permission no. 2017-0077). The mice were maintained in specific-pathogen free condition, controlled temperature (22±2° C.), humidity (50±10%), and light/dark cycle (12:12 h). Sterile tablet food, water and bedding were provided ad libitum. The mice were injected subcutaneously with approximately two million KKU-213 cells resuspended in 100 μl DMEM. When the tumor size reached 200 mm^3 after approximately 4 weeks, the mice were intravenously injected with near-infrared Flamma Fluor 675-labeled peptides. After 2 h, the signal was detected using the In Vivo Imaging System (IVIS) (PerkinElmer, Waltham, MA, USA). During the analysis the mice were anesthetized with 2.5% isoflurane in a gas chamber supplied with oxygen flowmeter 0.8 L/min. […] The frozen tissues were prepared for histological examination.
# To examine the tumor homing of […] (SEQ ID NO: 1) peptide, the peptide was conjugated with Flamma 675 near-infrared dye and intravenously injected into mice bearing KKU-213 subcutaneous tumor.
# [4] = Serum stability analysis by HPLC; assay type: in vitro ADME; conditions: mouse serum, 37° C., 24 h incubation, declined thereafter
# Description: CSTLNVESC (SEQ ID NO: 1) peptide was stable until 16 h and declined thereafter (FIG. 9).
# KKU-055 cells [5] = test: Cytotoxicity of peptide in cholangiocarcinoma cell line; assay type: cell-based, human; conditions: 24 h, concentration up to 256 μM
# Description: (§3) To examine whether CSTLNVESC (SEQ ID NO: 1) peptide affects cell survival, KKU-213 and KKU-055 cells were reacted with the peptide for 24 h.
# KKU-213 cells [6] = test: as above; assay type: cell-based, human; conditions: 24 h, concentration up to 256 μM
# Description: as §3
# [7] = Systemic side effects in treated tumor-bearing mice (body weight, blood markers); assay type: in vivo; conditions: after treatment, 10 mg/kg intravenous three times per week
# From the text: (§4) To exploit the use of CSTLNVESC (SEQ ID NO: 1) peptide for targeted cancer therapy, a Trop2-targeted cytotoxic peptide consisting of CSTLNVESC (SEQ ID NO: 1), RRRRRRR (SEQ ID NO: 2) (R7), and KLAKLAKKLAKLAK (SEQ ID NO: 3) (KLA) peptides was synthesized and named CSTLNVESC (SEQ ID NO: 1)-R7-KLA. R7 is a well-known cell-penetrating peptide that enhances the internalization of peptides and proteins into cells. KLA is a cytotoxic peptide that may cause damage to mitochondrial membrane of mammalian cells when introduced into cells and induce cell death. CSTLNVESC (SEQ ID NO: 1)-R7-KLA was intravenously injected into mice bearing KKU-213 tumor (10 mg/kg, three times per week, FIG. 12A). CSTLNVESC (SEQ ID NO: 1)-targeted R7-KLA peptide reduced tumor volume (FIG. 12B) and tumor weight (FIG. 12C) more efficiently than the control peptide-targeted R7-KLA or combined treatment of CSTLNVESC (SEQ ID NO: 1), R7, and KLA.
# KKU-213 tumor = test: Anti-tumor growth activity in tumor-bearing mice; assay type: in vivo; conditions: 10 mg/kg intravenous, three times per week; versus control peptide-targeted R7-KLA or combined CSTLNVESC, R7, and KLA
# From the text: as §4
# KKU-055 cells [8] = test: Flow cytometry binding of FITC-labeled peptide; assay type: cell-based, human
# Description: (§5) A million cells were prepared, fixed with 4% PFA, and blocked with 1% BSA at RT for 30 min. The cells were reacted with mouse anti-Trop2 antibody at RT for 1 h with agitation. Then, cells were reacted with Alexa Fluor 488-labeled anti-mouse IgG antibody at RT for 1 h. For peptide binding, cells were reacted with FITC-labeling peptide at 4° C. for 1 h with agitation. The stained cells were fixed with 4% PFA before analysis with a flow cytometer.
# To examine the binding of […] (SEQ ID NO: 1) peptide to cells, […] (SEQ ID NO: 1) peptide was tagged with FITC fluorescence dye at the carboxy terminus. […] In contrast, NSSSVDK-FITC control peptide weakly bound to both cell lines. Binding of […] (SEQ ID NO: 1)-FITC peptide, but not NSSSVDK-FITC peptide, to Trop2-expressing KKU-213 cells was also observed by immunofluorescence microscopic analysis (FIG. 5B).
# KKU-213 cells [9] = test: Flow cytometry binding of FITC-labeled peptide; assay type: cell-based, human
# Description: as §5
# (§6) To examine the binding of CSTLNVESC (SEQ ID NO: 1) peptide to cells, CSTLNVESC (SEQ ID NO: 1) peptide was tagged with FITC fluorescence dye at the carboxy terminus. […] In contrast, NSSSVDK-FITC control peptide weakly bound to both cell lines. Binding of CSTLNVESC (SEQ ID NO: 1)-FITC peptide, but not NSSSVDK-FITC peptide, to Trop2-expressing KKU-213 cells was also observed by immunofluorescence microscopic analysis (FIG. 5B).
# KKU-055 cells [10] = test: Cell binding affinity assay using the Ligand Tracer; design: species or system human
# Description: To determine the cell binding affinity of CSTLNVESC (SEQ ID NO: 1) peptide, a binding assay using the Ligand Tracer was performed. The machine continuously monitored the CSTLNVESC (SEQ ID NO: 1)-FITC peptide binding to KKU-213 or KKU-055 cells that was dose and time-dependent.
# [11] = tested on: Trop2-overexpressing MCF7 breast tumor cells; test: FITC-peptide cell binding (FIG. 6B); assay type: cell-based
# [12] = tested on: Trop2-overexpressing HEK293T cells; test: FITC-peptide cell binding (FIG. 6A); assay type: cell-based, human
# [13] = tested on: HeLa cervical tumor cells; test: FITC-peptide cell binding (FIG. 6B); assay type: cell-based
# [14] = tested on: Trop2-expressing KKU-213 cells; test: Immunofluorescence microscopic analysis of FITC-peptide binding; assay type: cell-based, human
# Description: For co-localization assays, cells were reacted with FITC-conjugated peptide at 4° C. for 1 h and fixed with 4% PFA at RT for 10 min. Next, cells were reacted with mouse anti-Trop2 antibody at 4° C. overnight and then with Alexa Fluor 594-labeled anti-mouse IgG antibody (Thermo Fisher Scientific) at RT for 1 h. Cells were counter-stained with DAPI and enclosed with an anti-fade agent. The slides were examined using a confocal microscope.
# as §6
# [15] = tested on: Trop2-silenced KKU-213 cells; test: FITC-peptide binding after Trop2 silencing with siRNAs; assay type: cell-based, human; conditions: KKU-213 transfected with Trop2 siRNAs for 24 h
# From the text: To prepare Trop2-overexpressing cells for biopanning, pCMV6-AC-GFP plasmid including human Trop2 gene, tacstd2, (Origene, Rockville, MD, USA) was transfected into HEK293T cells using Lipofectamine 2000 (Thermo Fisher Scientific, Waltham, MA, USA). For Trop2 silencing, KKU-213 cells were transfected with a small-interfering RNA (siRNA) against Trop2 gene (Qiagen, Venlo, Netherlands) or control siRNA (Bioneer, Oakland, CA) using Lipofectamine RNAiMAX (Thermo Fisher Scientific). Two siRNAs, siTrop21 and siTrop22 have been designed specifically to target sequences; 5′-CCCGGGATCGTTTGCAAGTAA-3 (SEQ ID NO: 4)′ and 5′-TTGCGACATTGTGAAGGCTTA-3 (SEQ ID NO: 5)′. The silencing efficiencies were analyzed by Western blots.
# For co-localization assays, cells were reacted with FITC-conjugated peptide at 4° C. for 1 h and fixed with 4% PFA at RT for 10 min. […]
# To further examine whether the binding of CSTLNVESC (SEQ ID NO: 1)-FITC peptide to the Trop2-overexpressing cells was mediated by Trop2, Trop2 gene expression in KKU-213 cells was silenced using Trop2 siRNAs. Trop2 expression was reduced after transfection with Trop2 siRNAs for 24 h as determined by western blotting (FIG. 5C), immunofluorescence microscopy (FIG. 5D), and flow cytometry (FIG. 5E). […]
# H460 lung tumor cells = test: FITC-peptide cell binding (FIG. 6B); assay type: cell-based
# [16] = target: T1, Trop2 (trophoblast antigen 2) expressed on human tumor cell lines (human, UniProt P09758 27-323); test: Ligand Tracer, real-time binding of FITC-peptide to KKU-213 cells
# T1 construct: whole, on cells; Endogenous membrane glycoprotein; also called tacstd2; Trop2-positive KKU-213 cells
# T1 sequence (looked up): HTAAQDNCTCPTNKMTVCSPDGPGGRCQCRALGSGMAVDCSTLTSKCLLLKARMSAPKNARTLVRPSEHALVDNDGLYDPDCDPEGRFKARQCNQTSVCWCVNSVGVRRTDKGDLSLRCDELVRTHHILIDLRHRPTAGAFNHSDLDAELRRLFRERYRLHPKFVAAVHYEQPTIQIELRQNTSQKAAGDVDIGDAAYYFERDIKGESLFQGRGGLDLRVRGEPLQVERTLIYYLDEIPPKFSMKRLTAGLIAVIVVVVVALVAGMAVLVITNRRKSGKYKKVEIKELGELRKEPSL
# Description: To determine the cell binding affinity of […] (SEQ ID NO: 1) peptide, a binding assay using the Ligand Tracer was performed.
molecule,measurement,setting,value
CSTLNVESC [CSTLNVESC (SEQ ID NO: 1)],serum-induced invasion,KKU-213 cells [1],inhibited
same,serum-induced migration,KKU-213 cells [2],inhibited
same,accumulation and co-localization with Trop2 in tumor tissues (immunofluorescence),[3]; anti-Trop2 antibody staining of tumor tissue,accumulated and co-localized with Trop2 in tumor tissues
same,"average photons in other organs, versus control peptide",[3]; isolated organs except kidney,similar
same,time until which peptide was stable in serum,[4],16 h
same,cytotoxicity,KKU-055 cells [5],No cytotoxicity
same,cytotoxicity,KKU-213 cells [6],No cytotoxicity
"CSTLNVESC (SEQ ID NO: 1)-Flamma 675: CSTLNVESC peptide conjugated with Flamma 675 near-infrared dye (cysteine pairing not given here; also: conjugated with Flamma 675 near-infrared dye, site not given here)","accumulation in tumor, ex vivo imaging and average photons in isolated organs","[3]; mouse, in vivo",accumulation
same,average photons in tumor,"[3]; mouse, in vivo",higher than those of the control peptide
same,"tumor homing, whole-body imaging","[3]; mouse, in vivo, iv",homed to tumor more efficiently than the control peptide
"CSTLNVESC (SEQ ID NO: 1)-R7-KLA: Trop2-targeted cytotoxic peptide consisting of CSTLNVESC, RRRRRRR (R7), and KLAKLAKKLAKLAK (KLA) peptides (CSTLNVESCRRRRRRRKLAKLAKKLAKLAK)",level of kidney function marker BUN,[7],within normal ranges
same,level of kidney function marker creatinine,[7],within normal ranges
same,level of liver function enzyme ALP,[7],within normal ranges
same,level of liver function enzyme ALT,[7],within normal ranges
same,level of liver function enzyme AST,[7],within normal ranges
same,tumor volume,KKU-213 tumor,reduced
same,tumor weight,KKU-213 tumor,reduced
"NSSSVDK-FITC: FITC-labeled NSSSVDK control peptide (also: FITC label, site not given here) [reference compound]",binding to cells (flow cytometry),KKU-055 cells [8],weakly bound
same,binding to cells (flow cytometry),KKU-213 cells [9],weakly bound
CSTLNVESC (SEQ ID NO: 1)-FITC (CSTLNVESC-{FITC′}; cysteine pairing not given here) [… peptide tagged with FITC fluorescence dye at the carboxy terminus],binding (Ligand Tracer),KKU-055 cells [10],hardly detected
same,binding to cells,[11],selectively bound
same,binding to cells,[12],selectively bound
same,binding to cells (flow cytometry),KKU-213 cells [9],bound to KKU-213 cells at higher levels than to KKU-055 cells
same,binding to cells,[13],selectively bound
same,binding to cells (immunofluorescence microscopy),[14],observed
same,binding to Trop2-silenced cells,[15],reduced
same,binding to cells,H460 lung tumor cells,selectively bound
"CSTLNVESC-{FITC′} (cysteine pairing not given here, Synthetic peptide (Fmoc), from a CX7C T7 phage library; also called FITC-conjugated peptide) [CSTLNVESC (SEQ ID NO: 1)-FITC peptide]",Kd,[16],5.21 µM
